PMC6934184, “Selective DNA-PKcs inhibition extends the therapeutic index of localized radiotherapy and chemotherapy” (The Journal of Clinical Investigation, 2019)

Target: T1, CDK14 (PFTK1)/cyclin Y (Homo sapiens, UniProt O94921)
T1 construct: purchased Thermo Fisher Scientific (Life Technologies) SelectScreen
Assay: SelectScreen LanthaScreen
Assay type: binding
Conditions: 1 µM
Summary of the method: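 Percent values come from Thermo SelectScreen profiling of NU5455, combining activity and binding assays. CSF1R was run in Z'LYTE format at Km app ATP, and CAMK1 in Adapta format with ATP listed at 10.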

T1 sequence (O94921 whole entry): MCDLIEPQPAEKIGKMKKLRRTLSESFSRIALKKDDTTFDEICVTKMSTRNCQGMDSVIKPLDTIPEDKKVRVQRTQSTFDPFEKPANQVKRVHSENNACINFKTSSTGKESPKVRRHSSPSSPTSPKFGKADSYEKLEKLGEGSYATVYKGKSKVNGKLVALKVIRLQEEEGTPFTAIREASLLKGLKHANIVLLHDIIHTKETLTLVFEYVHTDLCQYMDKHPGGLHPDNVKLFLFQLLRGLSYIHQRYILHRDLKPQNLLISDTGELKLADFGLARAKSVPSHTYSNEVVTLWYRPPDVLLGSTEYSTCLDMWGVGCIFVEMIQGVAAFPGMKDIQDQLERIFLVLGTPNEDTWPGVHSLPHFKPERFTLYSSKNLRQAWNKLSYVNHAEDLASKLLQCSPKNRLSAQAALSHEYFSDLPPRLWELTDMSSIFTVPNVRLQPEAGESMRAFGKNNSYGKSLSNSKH
T1 sequence (Q8ND76 whole entry partner): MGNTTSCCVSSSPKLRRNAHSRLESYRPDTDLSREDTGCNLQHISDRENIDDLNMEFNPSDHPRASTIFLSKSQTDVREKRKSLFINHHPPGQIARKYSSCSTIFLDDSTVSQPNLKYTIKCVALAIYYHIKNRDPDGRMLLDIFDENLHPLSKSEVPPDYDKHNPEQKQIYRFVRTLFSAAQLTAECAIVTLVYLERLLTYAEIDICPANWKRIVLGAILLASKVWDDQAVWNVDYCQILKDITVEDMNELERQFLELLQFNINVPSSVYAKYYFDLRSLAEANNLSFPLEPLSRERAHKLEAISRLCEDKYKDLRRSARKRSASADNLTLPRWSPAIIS

CN(C(=O)CN1CCOCC1)c1ccc2sc3c(-c4cccc5c(=O)cc(N6CC7CCC(C6)O7)oc45)cccc3c2c1 [NU5455]
% displacement: 5.1%
